Data published in patent publication US20180119123A1, “CRISPR/CAS-RELATED METHODS AND COMPOSITIONS FOR TREATING HIV INFECTION AND AIDS” (EDITAS MEDICINE, INC., priority 2015, published 2018).
Entries after “also recorded” stand apart in the source; their conditions may differ.

Tests used:
[1] = test system: human mobilized peripheral blood CD34^+ HSCs; assay: Fold change in CD34+ cell number (trypan blue count) 96 hours after Nucleofection; assay type: cell-based
Method: (§1) Human CD34^+ HSCs cells from mobilized peripheral blood (AllCells) were thawed into StemSpan Serum-Free Expansion Medium (SFEM™, StemCell Technologies) containing 100 ng/mL each of the following cytokines: human stem cell factor (SCF), thrombopoietin (TPO), and flt-3 ligand (FL) (all from Peprotech). Cells were grown for 3 days in a humidified incubator and 5% CO2 20% O2. […] The published use of UM171 involved prolonged exposure of HSCs to the small molecule for ex vivo expansion of HSCs. In the current experiment, HSCs were exposed to UM171 for 2 hours before and 24 hours after delivery of Cas9 and gRNA plasmid DNA. This UM171 treatment protocol was based on pilot studies performed by the inventors that indicated acute pre-treatment with UM171 before lentivirus vector mediated gene delivery improved HSC viability compared to HSCs treated with vehicle (dimethylsulfoxide, DMSO, Sigma) alone. […] At 96 hours after Nucleofection™, CD34^+ cells were counted for by trypan blue exclusion and divided into 3 portions for the following analyses: a) flow cytometry analysis for assessment of viability by co-staining with 7-Aminoactinomycin-D (7-AAD) and allophycocyanin (APC)-conjugated Annexin-V antibody (ebioscience); b) flow cytometry analysis for maintenance of HSC phenotype (after co-staining with phycoerythrin (PE)-conjugated anti-human CD34 antibody and fluorescein isothicyanate (FITC)-conjugated anti-human CD90, both from BD Bioscience; c) hematopoietic colony forming cell (CFC) analysis by plating 1500 cells in semi-solid methylcellulose based Methocult medium (StemCell Technologies) that supports differentiation of erythroid and myeloid blood cell colonies from HSCs and serves as a surrogate assay to evaluate HSC multipotency and differentiation potential ex vivo; d) genomic DNA analysis for detection of editing at the CCR5 locus. […]

CD34^+ HSCs = assay: Hematopoietic colony forming cell (CFC) assay in Methocult medium; assay type: cell-based, human; conditions: Nucleofection with wild-type Cas9 and CCR5-U43 gRNA plasmid DNA + UM171; two weeks
Method: Human CD34^+ HSCs cells from mobilized peripheral blood (AllCells) were thawed into StemSpan Serum-Free Expansion Medium (SFEM™, StemCell Technologies) containing 100 ng/mL each of the following cytokines: human stem cell factor (SCF), thrombopoietin (TPO), and flt-3 ligand (FL) (all from Peprotech). Cells were grown for 3 days in a humidified incubator and 5% CO2 20% O2. […] The published use of UM171 involved prolonged exposure of HSCs to the small molecule for ex vivo expansion of HSCs. In the current experiment, HSCs were exposed to UM171 for 2 hours before and 24 hours after delivery of Cas9 and gRNA plasmid DNA. This UM171 treatment protocol was based on pilot studies performed by the inventors that indicated acute pre-treatment with UM171 before lentivirus vector mediated gene delivery improved HSC viability compared to HSCs treated with vehicle (dimethylsulfoxide, DMSO, Sigma) alone. After the 2-hour pretreatment with UM171, 1 million […] HSCs were Nucleofected™ with the Amaxa™ 4D Nucleofector™ device (Lonza), Program EO100 using components of the P3 Primary Cell 4D-Nucleofector Kit™ (Lonza) according to the manufacturer's instructions. Briefly, one million cells were suspended in Nucleofector™ solution and the following amounts of plasmid DNA were added to the cell suspension: 1250 ng plasmid expressing CCR5 gRNA (CCR5-U43) from the human U6 promoter and 3750 ng plasmid expressing wild-type S. pyogenes Cas 9 transcriptionally regulated by the CMV promoter. After Nucleofection™, cells were plated into Stemspan-SFEM™ supplemented with SCF, TPO, FL and 40 nM UM171. After overnight incubation, HSCs were plated in Stemspan-SFEM™ plus cytokines without UM171. At 96 hours after Nucleofection™, CD34^+ cells were counted for by trypan blue exclusion and divided into 3 portions for the following analyses: a) flow cytometry analysis for assessment of viability by co-staining with 7-Aminoactinomycin-D (7-AAD) and allophycocyanin (APC)-conjugated Annexin-V antibody (ebioscience); b) flow cytometry analysis for maintenance of HSC phenotype (after co-staining with phycoerythrin (PE)-conjugated anti-human CD34 antibody and fluorescein isothicyanate (FITC)-conjugated anti-human CD90, both from BD Bioscience; c) hematopoietic colony forming cell (CFC) analysis by plating 1500 cells in semi-solid methylcellulose based Methocult medium (StemCell Technologies) that supports differentiation of erythroid and myeloid blood cell colonies from HSCs and serves as a surrogate assay to evaluate HSC multipotency and differentiation potential ex vivo; d) genomic DNA analysis for detection of editing at the CCR5 locus. Genomic DNA was extracted from HSCs 96 hours after Nucleofection™, and CCR5 locus-specific PCR reactions were performed.
To evaluate maintenance of HSC potency and differentiation potential, two weeks after plating CD34^+ HSCs in CFC assays, hematopoietic activity was quantified based on scoring the HSC progeny by enumerating the total number of hematopoietic colony forming units (CFU) and the frequencies of specific blood cell phenotypes, including: mixed myeloid/erythroid (Granulocyte-erythroid-monocyte macrophage, CFU-GEMM), myeloid (CFU-macrophage (M), granulocyte-macrophage (CFU-GM)) and erythroid (CFU-E) colonies. CD34^+ HSCs that were Nucleofected™ after UM171 pre-treatment maintained CFC potential compared to un-Nucleofected™ HSCs (Table 12). In contrast, CD34^+ HSCs that were Nucleofected™ without UM171 pre-treatment had reduced CFC potential (lower total CFC counts and reduced numbers of mixed-phenotype colonies (CFU-GEMM) and erythroid colonies (CFU-E)) in comparison to un-Nucleofected™ CD34^+ HSCs.
Human CD34^+ HSCs cells from mobilized peripheral blood (AllCells) were thawed into StemSpan Serum-Free Expansion Medium (SFEM, StemCell Technologies) containing 100 ng/mL each of the following cytokines: human stem cell factor (SCF), thrombopoietin (TPO), and flt-3 ligand (FL) (all from Peprotech). […]

[2] = test system: human mobilized peripheral blood CD34^+ HSCs; assay: Viability by 7-AAD / Annexin-V flow cytometry 96 hours after Nucleofection; assay type: cell-based
Method: as §1

With `Cn1nnc(-c2ccc3c(c2)[nH]c2nc(Cc4ccccc4)nc(N[C@H]4CC[C@H](N)CC4)c23)n1` [UM171, (1r,4r)-N1-(2-benzyl-7-(2-methyl-2H-tetrazol-5-yl)-9H-pyrimido[4,5-b]indol-4-yl)cyclohexane-1,4-diamine] the “Fold expansion / proliferation potential of Nucleofected CD34+ cells with UM171 pre-treatment versus without” value ([1]; 40 nM UM171, S. aureus or S. pyogenes Cas9 and CXCR4 gRNA plasmids) was “higher fold-expansion; also recorded: maintain proliferation potential”, the “Fold change in cell number of CD34^+ cells (96 hours vs. time 0 cell number)” value ([1]; Nucleofection with wild type Cas9 and CCR5-U43 gRNA plasmid DNA + UM171 treatment (40 nM, 2 hours before and 24 hours after)) was 1.5 and the “Number of colony forming units: E” value (CD34^+ HSCs) was 92 colony forming units per 1500 CD34^+ HSCs plated. The “Number of colony forming units: G” value (CD34^+ HSCs) was 40 colony forming units per 1500 CD34^+ HSCs plated, the “Number of colony forming units: GEMM” value (CD34^+ HSCs) was 20 colony forming units per 1500 CD34^+ HSCs plated and the “Number of colony forming units: GM” value (CD34^+ HSCs) was 32 colony forming units per 1500 CD34^+ HSCs plated. The “Number of colony forming units: M” value (CD34^+ HSCs) was 64 colony forming units per 1500 CD34^+ HSCs plated, the “Number of colony forming units: Total” value (CD34^+ HSCs) was 228 colony forming units per 1500 CD34^+ HSCs plated and the “Effect of UM171 on CD34+ HSC viability, survival and proliferation after Nucleofection” value ([2]; 40 nM UM171, 2 hours before and 24 hours after Nucleofection with Cas9 and CCR5-U43 gRNA plasmid DNA) was “preserved CD34^+ HSC viability; also recorded: critical for maintenance of HSC survival and proliferation”. For the same molecule, the “Effect of UM171 on HSC survival and proliferation after Nucleofection” value ([2]; pre-treatment and short-term (24-hour) co-culture, Cas9 and CXCR4 gRNA plasmid DNA) was “critical for maintenance of HSC survival and proliferation”.
